Assay results published in publication PMC12123601, “Light-Induced, Lysine-Targeting Irreversible Covalent Inhibition of the Human Oxygen Sensing Hydroxylase Factor Inhibiting HIF (FIH)” (Journal of the American Chemical Society, 2025).

Assays:
FIH = FIH (Homo sapiens, UniProt Q9NWT6); experiment: O-phenylenediamine (OPD) 2OG derivatization turnover assay (remaining 2OG in FIH hydroxylation system); type: biochemical; parameters: Concentration of remaining 2OG: unit: µM
Description: To explore whether the covalent inhibitor can effectively and sustainably prevent the hydroxylation process catalyzed by FIH, the inhibitory activities against FIH were evaluated using the fluorescent O-phenylenediamine (OPD) 2OG derivatization turnover assay (Figure S9).
Figure S9. Schematic of the O-phenylenediamine (OPD) fluorescent derivative assay6. The assay monitors depletion of 2OG.
(1 picture or pasted object on this page, not shown here) […]
pET28a vectors encoding for full-length FIH with an N-terminal His6 tag or for FIH (K106A) with an N-terminal His6 tag were purchased from Nanjing Zoonbio Biotechnology. Both the FIHWT and FIHK106A protein were expressed from the respective plasmid in Escherichia coli BL21 at 20 °C for 16 h. E. coli cells were lysed and the lysate were clarified by centrifugation. His6-tagged FIHWT or FIHK106A was purified on a HisTrap affinity column (GE Healthcare) by elution with an imidazole gradient. The final purified proteins were stored in PBS buffer. […]
Ki = I50 / [1 + ([L]50 + [P]0)/Kd] […]
3.2 O-Phenylenediamine (OPD) fluorescent derivative assay
Assays were carried out by mixing 1 mM DTT, 0.6 mg/mL of catalase, 200 μM 2-OG, 50 mM Hepes, 200 μM HIF-1α (788-807), and inhibitors at pH 7.0 to a final volume of 44 μL and incubated at 37 °C for 5 min. At the same time, FIH enzyme and iron (prepared as 200 mM stock in 20 mM HCl and diluted with water) were mixed at room temperature for 3 min. […] The reaction was stopped by the addition of 100 μL of 0.5 M HCl. After adding 50 μL of 10 mg/mL OPD in 0.5 M HCl and heating at 95 °C for 10 min, the derivatization was achieved. Then, 50 μL of the mixture centrifugated for 5 min was made basic by adding 30 μL of 1.25 M NaOH, and then fluorescence was detected by SPARK Multi-Mode Microplate Reader (Tecan). […]
Crystals were cryo -protected using mother liquor supplemented with 25%v/v glycerol before manual loop cryo -cooling in liquid N2.
Data for ligand -bound protein complexes were from single crystals at 100 K using Diamond Light Source (UK) beamlines. The FIH crystal structures were determined by molecular replacement (MR) using the AutoMR (PHASER) subroutine in PHENIX (version 1.18.2) based on the PDB ID: 1H2K crystal structure .

[1] = tested on: EGLN3 mRNA level in Hep3B cells; experiment: qRT-PCR of FIH-dependent HIF target gene EGLN3 in Hep3B cells; type: cell-based
Description: 5 […] sustainably engages with FIH and regulates the expression of FIH-dependent HIF target gene EGLN3 in Hep3B cells. (A) The CETSA assay was carried out with Hep3B cells grown in the presence of NBA-ZG-2291 (50 μM) for 12–48 h after 30 min of light activation (365 nm, 16 W). The intensity of the bands for grayscale analysis was referenced to the starting temperature (37 °C). α-Actinin was the sample loading control. n = 2; mean ± SD. […] (E) Correlation heatmap of the NBA-ZG-2291-treated group and the siFIH group by RNA-sequencing analysis. […] The relative fold change with respect to DMSO treated sample is shown (with normalization to HPRT gene levels). Mean ± SEM; n = 3. (G) TG level of NBA-ZG-2291-treated 3T3-L1-derived adipocytes. Mean ± SEM; n = 3. (H) Representative Oil Red O-stained images of the control, ZG-2291-treated, and NBA-ZG-2291-treated 3T3-L1-derived adipocytes. Scale Bar, 30 μm. P values were analyzed by two-way ANOVA comparing with the vehicle/control group (*, P < 0.05; **, P < 0.01; ***, P < 0.001, ****, P < 0.0001). See Methods (Quantitative PCR Analysis of Gene Expression) for assay details. TEXT PRINTED IN THE PICTURE: (A) no label printed: FIH: ΔTm (°C): 8.87 (Incubation time: 12 h); FIH: ΔTm (°C): 9.28 (Incubation time: 24 h); FIH: ΔTm (°C): 8.86 (Incubation time: 48 h); α-actinin: ΔTm (°C): 0.30 (Incubation time: 12 h); α-actinin: ΔTm (°C): -0.03 (Incubation time: 24 h); α-actinin: ΔTm (°C): -0.45 (Incubation time: 48 h) DOUBTS OF THE COPYIST ABOUT THIS PICTURE: Panel A: the picture prints no substance label with the ΔTm tables, so the label is left empty
The Egl-9 family hypoxia-inducible factor 3 gene (EGLN3, PHD3) is a HIF target gene, expression of which is negatively regulated by FIH catalysis, , potentially in a context-dependent manner. We therefore investigated the effect of the light-induced covalent inhibitor NBA-ZG-2291 on EGLN3 expression levels in Hep3B cells using ZG-2291 as a positive inhibition control. […] At a concentration of 10 μM, NBA-ZG-2291 increased EGLN3 expression by ∼2.5-fold with irradiation.
We also compared the time-dependent regulation of NBA-ZG-2291 on the HIF pathway with that of ZG-2291. […] This may result from the limited action time of the reversible inhibitor, perhaps due to its metabolism. The overall results provide strong evidence that the light-induced, lysine-targeting irreversible covalent inhibitor NBA-ZG-2291 can effectively and sustainably engage FIH, leading to the upregulation of FIH-dependent HIF target gene expression.

Chain of FIH (Q9NWT6 whole entry): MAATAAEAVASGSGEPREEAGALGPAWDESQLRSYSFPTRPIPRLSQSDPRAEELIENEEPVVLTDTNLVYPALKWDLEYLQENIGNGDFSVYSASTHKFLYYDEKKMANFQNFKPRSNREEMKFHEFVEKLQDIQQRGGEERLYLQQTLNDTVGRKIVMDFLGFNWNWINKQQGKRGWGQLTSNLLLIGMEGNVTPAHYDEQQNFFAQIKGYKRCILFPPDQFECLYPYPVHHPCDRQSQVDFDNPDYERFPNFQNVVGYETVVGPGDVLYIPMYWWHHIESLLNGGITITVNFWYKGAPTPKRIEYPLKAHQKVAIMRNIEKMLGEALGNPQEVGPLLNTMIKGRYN

Concentration of remaining 2OG (FIH; inhibitor 0.14 μM, incubation 0 min, 200 μM 2-OG at start): 200.0
Concentration of remaining 2OG (FIH; inhibitor 0.14 μM, incubation 15 min): 182.9
Concentration of remaining 2OG (FIH; inhibitor 0.14 μM, incubation 30 min): 173.3
Concentration of remaining 2OG (FIH; inhibitor 0.14 μM, incubation 1 h): 163.0
Concentration of remaining 2OG (FIH; inhibitor 0.14 μM, incubation 4 h): 140.5
Concentration of remaining 2OG (FIH; inhibitor 0.41 μM, incubation 0 min, 200 μM 2-OG at start): 200.0
Concentration of remaining 2OG (FIH; inhibitor 0.41 μM, incubation 15 min): 184.2
Concentration of remaining 2OG (FIH; inhibitor 0.41 μM, incubation 30 min): 176.4
Concentration of remaining 2OG (FIH; inhibitor 0.41 μM, incubation 1 h): 162.3
Concentration of remaining 2OG (FIH; inhibitor 0.41 μM, incubation 4 h): 153.7
Concentration of remaining 2OG (FIH; inhibitor 1.23 μM, incubation 0 min, 200 μM 2-OG at start): 200.0
Concentration of remaining 2OG (FIH; inhibitor 1.23 μM, incubation 15 min): 190.8
Concentration of remaining 2OG (FIH; inhibitor 1.23 μM, incubation 30 min): 184.4
Concentration of remaining 2OG (FIH; inhibitor 1.23 μM, incubation 1 h): 172.8
Concentration of remaining 2OG (FIH; inhibitor 1.23 μM, incubation 4 h): 159.4
Concentration of remaining 2OG (FIH; inhibitor 3.70 μM, incubation 0 min, 200 μM 2-OG at start): 200.0
Concentration of remaining 2OG (FIH; inhibitor 3.70 μM, incubation 15 min): 192.8
Concentration of remaining 2OG (FIH; inhibitor 3.70 μM, incubation 30 min): 190.8
Concentration of remaining 2OG (FIH; inhibitor 3.70 μM, incubation 1 h): 181.0
Concentration of remaining 2OG (FIH; inhibitor 3.70 μM, incubation 4 h): 167.9
Concentration of remaining 2OG (FIH; inhibitor 11.1 μM, incubation 0 min, 200 μM 2-OG at start): 200.0
Concentration of remaining 2OG (FIH; inhibitor 11.1 μM, incubation 15 min): 195.1
Concentration of remaining 2OG (FIH; inhibitor 11.1 μM, incubation 30 min): 194.6
Concentration of remaining 2OG (FIH; inhibitor 11.1 μM, incubation 1 h): 184.1
Concentration of remaining 2OG (FIH; inhibitor 11.1 μM, incubation 4 h): 175.9
Concentration of remaining 2OG (FIH; inhibitor 33.3 μM, incubation 0 min, 200 μM 2-OG at start): 200.0
Concentration of remaining 2OG (FIH; inhibitor 33.3 μM, incubation 15 min): 195.6
Concentration of remaining 2OG (FIH; inhibitor 33.3 μM, incubation 30 min): 195.3
Concentration of remaining 2OG (FIH; inhibitor 33.3 μM, incubation 1 h): 189.4
Concentration of remaining 2OG (FIH; inhibitor 33.3 μM, incubation 4 h): 181.4
Concentration of remaining 2OG (FIH; inhibitor 100 μM, incubation 0 min, 200 μM 2-OG at start): 200.0
Concentration of remaining 2OG (FIH; inhibitor 100 μM, incubation 15 min): 199.4
Concentration of remaining 2OG (FIH; inhibitor 100 μM, incubation 30 min): 197.3
Concentration of remaining 2OG (FIH; inhibitor 100 μM, incubation 1 h): 193.2
Concentration of remaining 2OG (FIH; inhibitor 100 μM, incubation 4 h): 186.6
Concentration of remaining 2OG (FIH; inhibitor 300 μM, incubation 0 min, 200 μM 2-OG at start): 200.0
Concentration of remaining 2OG (FIH; inhibitor 300 μM, incubation 15 min): 200.0
Concentration of remaining 2OG (FIH; inhibitor 300 μM, incubation 30 min): 199.1
Concentration of remaining 2OG (FIH; inhibitor 300 μM, incubation 1 h): 196.6
Concentration of remaining 2OG (FIH; inhibitor 300 μM, incubation 4 h): 193.3
SMILES: O=C(O)CNC(=O)c1ncc(-c2cc(-c3cccc(Cl)c3)no2)cc1O [ZG-2291, reference compound]
Effect of irradiation on EGLN3 expression [1]: not affected by irradiation
Upregulation of EGLN3 mRNA level ([1]; 20 μM, absence of irradiation): ~2.2 fold
EGLN3 mRNA levels versus DMSO ([1]; after 16 h treatment): no significant difference compared to the negative control
